Target: T1, A2-S481T/C482T (mutant ASCT2) (Homo sapiens, UniProt Q15758, C467T/S466T)
T1 construct: expressed in transfected cells; host or cells: Xenopus laevis oocytes (cRNA injection)
T1 sequence (Q15758 1-541 S466T/C467T): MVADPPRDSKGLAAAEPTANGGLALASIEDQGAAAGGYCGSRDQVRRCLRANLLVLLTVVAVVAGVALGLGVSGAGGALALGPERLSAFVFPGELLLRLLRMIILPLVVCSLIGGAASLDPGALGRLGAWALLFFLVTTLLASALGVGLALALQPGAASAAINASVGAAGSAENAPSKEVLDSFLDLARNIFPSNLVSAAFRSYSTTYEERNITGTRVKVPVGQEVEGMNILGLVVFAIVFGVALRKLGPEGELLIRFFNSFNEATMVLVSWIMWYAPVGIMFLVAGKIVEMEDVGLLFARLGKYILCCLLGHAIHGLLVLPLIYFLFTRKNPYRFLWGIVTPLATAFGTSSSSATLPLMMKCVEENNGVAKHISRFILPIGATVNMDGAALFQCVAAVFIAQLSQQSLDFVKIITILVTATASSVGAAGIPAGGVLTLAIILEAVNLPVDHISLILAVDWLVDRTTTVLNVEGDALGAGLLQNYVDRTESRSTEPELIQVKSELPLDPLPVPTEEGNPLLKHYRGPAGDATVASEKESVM
Assay: Radiolabelled uptake in oocytes expressing A2-S481T/C482T
Type: cell-based
Conditions: 10 µM L-[3H]substrate, 10 min, room temperature

## N[C@@H](CO)C(=O)O [L-serine]
  Radiolabelled substrate uptake into oocytes (in words): displays uptake

Reference: paper PMC5750217 (Nature Communications, 2018)
